According to patent EP4514928B1, “USE OF AN ANTIOXIDANT FOR REDUCING AND/OR PREVENTING THE TOXICITY OF A LUBRICANT COMPOSITION” (priority 2022, dated 2023):

What was measured:
Planaires adultes entier = settings: adult planarians, 12 days, checks at 7 and 12 days, 0,22 mg/L - 22 mg/L; for Concentration à partir de laquelle une mortalité significative du planaire est observée: according to Zhang et al. 2019; for Concentration à partir de laquelle sont observés des troubles du comportement potentiellement liés à des troubles cognitifs du planaire: adhérence, vitesse de déplacement, repos, phototaxie, scrunching
Method: La méthodologie utilisée est la suivante Tous les composés sont fournis sous forme de poudres. Un volume approprié de DMSO 100 % (Sigma) a été ajouté, comme indiqué sur les tubes, pour obtenir une solution mère à 4,4 mg/ml (soit 200 fois plus concentrée que la concentration maximale de test).

vie aquatique = settings: long-term effects; cited from earlier work
[1] = cited from earlier work

Molecule: c1ccc(Nc2cccc3ccccc23)cc1 [compound 19, N-phénylnaphthalène-1-amine]
- Concentration à partir de laquelle une mortalité significative du planaire est observée (Planaires adultes entier): 6,9 mg/L
- Concentration à partir de laquelle sont observés des troubles du comportement potentiellement liés à des troubles cognitifs du planaire (Planaires adultes entier): 2,2 -3,9 mg/L
- Toxicité (Informations ECHA - 2021): vie aquatique (écotoxique) (vie aquatique): Est très toxique pour la vie aquatique avec des effets à long terme (écotoxique)
- Toxicité (Informations ECHA - 2021): toxicité aiguë ([1]; if swallowed): est nocif s'il est avalé (toxicité aiguë)
- Toxicité (Informations ECHA - 2021): dommages aux organes ([1]; prolonged or repeated exposure): peut causer des dommages aux organes par exposition prolongée ou répétée

Molecule: CC(C)CC(C)Nc1ccc(Nc2ccccc2)cc1 (centres unmarked) [compound 22, N-(1,3-Diméthylbutyl)-N'-phényl-p-phénylènediamine]
- Concentration à partir de laquelle une mortalité significative du planaire est observée (Planaires adultes entier): 4,8 mg/L
- Concentration à partir de laquelle sont observés des troubles du comportement potentiellement liés à des troubles cognitifs du planaire (Planaires adultes entier): 1,5 mg/L

Molecule: Bis(nonylphényl)amine [Irganox® L67]
- Toxicité (Informations ECHA - 2021): vie aquatique (écotoxique) (vie aquatique): Est nocif pour la vie aquatique avec des effets à long terme (écotoxique) https://echa.europa.eu/fr/substance-information/-/substanceinfo/100.048.393 Evaluation en 2021 pour suspicion de Mutagénicité et PBT
